Source: patent publication US20250213558A1, “T-TYPE CALCIUM CHANNEL MODULATORS COMPRISING A PIPERAZINE OR 1,4-DIAZEPANE CORE AND METHODS OF USE THEREOF” (Praxis Precision Medicines, Inc., priority 2022, published 2025)
Like-named read-outs stand apart in the source and are kept apart here.

Target: T1, Human Cav3.1 calcium channel (Homo sapiens, UniProt O43497)
T1 construct: expressed in transfected cells; host or cells: HEK-293 natClytin/TASK1+Cav3.1 cell line
Test: Human Cav3.1 calcium channel patch clamp assay (SyncroPatch 384PE; single point and IC50, voltage dependent block)
Format: cell-based
Details: for % Inhibition (Single Point Data): Testing Conc 1.25, patch clamp
Description: Certain compounds (as indicated) were tested for Human Cav3.1 calcium channel activity via a patch clamp assay as disclosed herein.
Pulse generation and data collection were performed with PatchController384 V1.3.0 and DataController384 V1.2.1 (Nanion Technologies). Offline analysis was performed using Excel and Graphpad Prism (V 8.4.2) with complete data files uploaded to Dotmatics. The access resistance and apparent membrane capacitance were estimated using built-in protocols. Current was recorded in whole cell configuration from a population of cells. The cells were lifted, triturated, and resuspended at 800,000 cells/ml. The cells were allowed to recover in the cell hotel prior to experimentation. Currents were recorded at room temperature. The external solution contained the following (in mM): NaCl 80, NMDG 60, KCl 4, MgCl2 1, CaCl2 6, glucose 5 and HEPES 10 (pH=7.4, Osmolarity˜300 mOsm). The extracellular solution was used as the wash, reference and compound delivery solution.
The compound plate was created at 2× concentrated in the extracellular solution. The compound was diluted to 1:2 when added to the recording well. The amount of DMSO in the extracellular solution was held constant at the level used for the highest tested concentration. For the voltage clamp experiments on Cav3.1, data were sampled at 10 KHz. After establishment of the seal and the passage in the whole cell configuration, the cells were held at −120 mV. Cav3.1 current was evoked using a 100 ms step to −20 mV (to measure resting state block), followed by a 1600 ms step to −65 mV and a second 100 ms step to −20 mV (to measure voltage dependent block). The voltage protocol was applied every 15 seconds in the absence and in the presence of the compounds under investigation. […] Current amplitude (pA) was measured in the peak 1 and 2. The average of last 3 sweeps of each liquid period (vehicle, compound under investigation, full block) was calculated. Nickel-sensitive current was used to calculate the % of inhibition in the presence of the compound under investigation.

[1] = HEK-293 natClytin/TASK1+Cav3.1 cell line
[2] = voltage dependent block (VDB), HEK-293 natClytin/TASK1+Cav3.1 cell line, read-out: Cav3.1 IC50

T1 sequence (O43497 whole entry): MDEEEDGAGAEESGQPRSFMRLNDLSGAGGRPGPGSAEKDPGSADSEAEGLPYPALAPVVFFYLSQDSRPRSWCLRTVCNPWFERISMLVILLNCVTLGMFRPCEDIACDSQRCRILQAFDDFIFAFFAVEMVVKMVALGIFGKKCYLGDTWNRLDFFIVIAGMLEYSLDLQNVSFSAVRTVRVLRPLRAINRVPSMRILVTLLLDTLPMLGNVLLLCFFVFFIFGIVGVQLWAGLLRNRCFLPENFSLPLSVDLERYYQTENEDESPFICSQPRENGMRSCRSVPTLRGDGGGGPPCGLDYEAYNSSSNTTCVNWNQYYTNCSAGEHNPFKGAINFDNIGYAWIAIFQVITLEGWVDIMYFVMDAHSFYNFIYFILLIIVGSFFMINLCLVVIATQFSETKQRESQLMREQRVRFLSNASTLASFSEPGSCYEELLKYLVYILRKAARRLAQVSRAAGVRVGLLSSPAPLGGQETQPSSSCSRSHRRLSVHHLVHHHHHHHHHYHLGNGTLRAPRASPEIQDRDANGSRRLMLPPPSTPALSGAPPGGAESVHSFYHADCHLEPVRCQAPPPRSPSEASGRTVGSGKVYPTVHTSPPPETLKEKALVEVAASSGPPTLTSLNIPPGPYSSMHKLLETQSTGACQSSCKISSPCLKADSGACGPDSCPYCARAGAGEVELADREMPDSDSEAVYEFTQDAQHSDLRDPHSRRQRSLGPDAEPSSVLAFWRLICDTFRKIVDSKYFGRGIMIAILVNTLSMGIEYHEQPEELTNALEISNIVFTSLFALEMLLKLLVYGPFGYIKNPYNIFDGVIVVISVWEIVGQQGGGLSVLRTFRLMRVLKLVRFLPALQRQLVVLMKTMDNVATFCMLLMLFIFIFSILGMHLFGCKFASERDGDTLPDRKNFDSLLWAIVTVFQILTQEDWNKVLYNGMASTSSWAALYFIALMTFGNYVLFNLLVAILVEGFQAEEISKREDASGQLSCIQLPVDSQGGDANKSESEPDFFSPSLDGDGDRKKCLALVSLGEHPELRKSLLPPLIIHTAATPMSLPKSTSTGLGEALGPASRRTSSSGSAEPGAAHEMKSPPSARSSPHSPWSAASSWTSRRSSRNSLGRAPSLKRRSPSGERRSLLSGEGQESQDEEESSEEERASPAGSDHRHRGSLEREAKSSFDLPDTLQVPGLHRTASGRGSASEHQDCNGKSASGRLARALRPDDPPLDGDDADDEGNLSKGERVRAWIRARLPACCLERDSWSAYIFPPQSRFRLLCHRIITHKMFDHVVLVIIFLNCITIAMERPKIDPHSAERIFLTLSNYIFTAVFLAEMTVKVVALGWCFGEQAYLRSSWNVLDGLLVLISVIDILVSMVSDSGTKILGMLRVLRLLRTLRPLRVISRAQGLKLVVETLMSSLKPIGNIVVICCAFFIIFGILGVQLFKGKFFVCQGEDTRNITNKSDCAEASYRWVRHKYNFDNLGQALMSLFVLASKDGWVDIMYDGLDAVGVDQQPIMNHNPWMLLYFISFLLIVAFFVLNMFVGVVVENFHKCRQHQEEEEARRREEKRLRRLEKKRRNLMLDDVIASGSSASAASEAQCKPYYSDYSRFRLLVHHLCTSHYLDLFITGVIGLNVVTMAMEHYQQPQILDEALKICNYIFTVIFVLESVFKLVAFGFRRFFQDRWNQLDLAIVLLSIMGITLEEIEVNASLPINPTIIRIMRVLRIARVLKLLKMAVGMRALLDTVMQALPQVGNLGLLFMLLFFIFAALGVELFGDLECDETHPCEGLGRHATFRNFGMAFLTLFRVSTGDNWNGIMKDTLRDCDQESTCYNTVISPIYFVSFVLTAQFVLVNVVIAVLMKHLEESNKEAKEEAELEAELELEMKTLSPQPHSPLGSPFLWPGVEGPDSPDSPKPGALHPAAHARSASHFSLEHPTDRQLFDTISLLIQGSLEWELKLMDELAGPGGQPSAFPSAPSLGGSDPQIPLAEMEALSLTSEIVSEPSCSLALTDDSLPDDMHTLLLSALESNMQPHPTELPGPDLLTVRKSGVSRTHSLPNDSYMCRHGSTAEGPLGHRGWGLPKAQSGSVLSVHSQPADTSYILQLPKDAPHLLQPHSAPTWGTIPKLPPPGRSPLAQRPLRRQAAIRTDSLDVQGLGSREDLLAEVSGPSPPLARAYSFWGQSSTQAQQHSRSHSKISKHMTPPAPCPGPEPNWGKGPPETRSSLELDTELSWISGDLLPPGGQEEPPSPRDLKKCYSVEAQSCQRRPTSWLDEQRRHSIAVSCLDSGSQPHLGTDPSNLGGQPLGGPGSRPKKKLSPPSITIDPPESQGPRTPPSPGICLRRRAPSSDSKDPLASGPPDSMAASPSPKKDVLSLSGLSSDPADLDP

Row | Structure (SMILES) | % Inhibition (Single Point Data) [1] [%] | IC50 [2] [nM] | IC50 [nM]
1 | COCC(C)(C)NC(=O)CN1C2CCC1CN(Cc1nc3c(Cl)cc(F)cc3[nH]1)C2 [Compound 80] | 96.659 | – | –
2 | O=C(CN1C2CCC1CN(Cc1nc3c(Cl)cc(F)cc3[nH]1)C2)N1CCC(F)(F)CC1 [Compound 81] | 100.06 | – | –
3 | CC1(NC(=O)CN2C3CCC2CN(Cc2nc4c(Cl)cc(F)cc4[nH]2)C3)COC1 [Compound 82] | 98.209 | – | –
4 | O=C(CN1C2CCC1CN(Cc1nc3c(Cl)cc(F)cc3[nH]1)C2)N1CCOCC1 [Compound 83] | 84.836 | 441 | –
5 | Fc1cc(Cl)c2nc(CN3CC4CCC(C3)N4CCC3CCCC3)[nH]c2c1 [Compound 84] | 101 | – | –
6 | COC(=O)C(C)(C)N(C)C(=O)CN1C2CCC1CN(Cc1nc3c(Cl)cc(F)cc3[nH]1)C2 [Compound 85] | 66.404 | 375 | –
7 | CC1(C)CCN1C(=O)CN1C2CCC1CN(Cc1nc3c(Cl)cc(F)cc3[nH]1)C2 [Compound 86] | 103.03 | 150 | –
8 | CN(C(=O)CN1C2CCC1CN(Cc1nc3c(Cl)cc(F)cc3[nH]1)C2)C(C)(C)C(=O)O [Compound 87] | 7.971 | – | –
9 | O=C(CN1C2CCC1CN(Cc1nc3c(Cl)cc(F)cc3[nH]1)C2)N1CCC(O)CC1 [Compound 88] | 61.278 | – | –
10 | COC1(CCN2C3CCC2CN(Cc2nc4c(Cl)cc(F)cc4[nH]2)C3)CCCC1 [Compound 89] | 98.148 | – | –
11 | Fc1cc(Cl)c2nc(CN3CC4CCC(C3)N4CCN3CCC(F)(F)CC3)[nH]c2c1 [Compound 90] | 99.043 | – | –
12 | CC1(C)CN(C(=O)CN2C3CCC2CN(Cc2nc4c(Cl)cc(F)cc4[nH]2)C3)C1 [Compound 91] | 97.882 | – | –
13 | OC1(CCN2C3CCC2CN(Cc2nc4c(Cl)cc(F)cc4[nH]2)C3)CCCC1 [Compound 92] | 98.505 | 175 | –
14 | CC1(C)CCN(C(=O)CN2C3CCC2CN(Cc2nc4c(Cl)cc(F)cc4[nH]2)C3)C1 [Compound 93] | 93.884 | 284 | –
15 | CC1(C)CCN1C(=O)CN1C2CC1CN(Cc1nc3c(Cl)cc(F)cc3[nH]1)C2 [Compound 94] | 89.896 | 249 | –
16 | Fc1cc(Cl)c2nc(CN3CC4CCC(C3)N4CCOC3CCCCC3)[nH]c2c1 [Compound 95] | 100.41 | – | –
17 | CC1(C)CC(CN2C3CCC2CN(Cc2nc4c(Cl)cc(F)cc4[nH]2)C3)CCO1 (stereo not shown) [Compound 96] | 93.367 | 205 | –
18 | O=C1CCCCN1CCN1C2CCC1CN(Cc1nc3c(Cl)cc(F)cc3[nH]1)C2 [Compound 97] | 79.865 | 367 | –
19 | Fc1cc(Cl)c2nc(CN3CC4CC(C3)N4CC3CCC(F)(F)CC3)[nH]c2c1 [Compound 98] | 92.211 | 231 | –
20 | CN(C(=O)CN1C2CC1CN(Cc1nc3c(Cl)cc(F)cc3[nH]1)C2)C1(C)CCC1 [Compound 100] | 88.827 | – | –
21 | CN(C(=O)CN1C2CC1CN(Cc1nc3c(Cl)cc(F)cc3[nH]1)C2)C(C)(C)C [Compound 101] | 96.57 | – | –
22 | Cc1ccc2ccnc(NCC3CCN(CC(=O)NC(C)(C)C)CC3)c2n1 [Compound 102] | 25.803 | 4430 | –
23 | CC1(C)CCCC(=O)N1CCN1C2CC1CN(Cc1nc3c(Cl)cc(F)cc3[nH]1)C2 [Compound 103] | 96.655 | 109 | –
24 | Fc1cc(Cl)c2nc(CN3CC4CC(C3)N4CCC3CCC(F)(F)CC3)[nH]c2c1 [Compound 104] | 99.877 | – | < 78.2
25 | CC1(CCN2C3CC2CN(Cc2nc4c(Cl)cc(F)cc4[nH]2)C3)CCOCC1 [Compound 105] | 73.309 | – | –

Row | Structure (SMILES) | % Inhibition (Single Point Data) [1] [%] | IC50 [2] [nM] | IC50 [nM]
26 | CC1(CN2C3CC2CN(Cc2nc4c(Cl)cc(F)cc4[nH]2)C3)CCOCC1 [Compound 106] | 52.218 | 1110 | –
27 | CC(C)(C)CCCN1C2CC1CN(Cc1nc3c(Cl)cc(F)cc3[nH]1)C2 [Compound 107] | 101.43 | – | < 78.2
28 | OC1(CCN2C3CC2CN(Cc2nc4c(Cl)cc(F)cc4[nH]2)C3)CCCC1 [Compound 108] | 79.783 | 338 | –
29 | CC1(CCN2C3CC2CN(Cc2nc4c(Cl)cc(F)cc4[nH]2)C3)CCC1 [Compound 109] | 98.531 | – | –
30 | CN(C(=O)CN1C2CC1CN(Cc1nc3c(Cl)cc(F)cc3[nH]1)C2)C1CCCC1 [Compound 110] | 91.767 | – | < 78.2
31 | CC(C)(C)NC(=O)CN1C2CC1CN(Cc1nc3c(Cl)cc(N)cc3o1)C2 [Compound 111] | 35.454 | – | –
32 | CC1(C)CC(CN2C3CC2CN(Cc2nc4c(Cl)cc(F)cc4[nH]2)C3)CCO1 (stereo not shown) [Compound 112] | 82.988 | – | –
33 | Fc1cc(Cl)c2nc(CN3CC4CC(C3)N4CCC3(F)CCCC3)[nH]c2c1 [Compound 113] | 94.677 | – | –
34 | CC(C)(C)NC(=O)CN1C2CC1CN(Cc1nc3c(C#N)cc(F)cc3[nH]1)C2 [Compound 114] | 95.181 | – | < 78.2
35 | CC(C)(C)NC(=O)CN1C2CC1CN(Cc1nc3c(Cl)cc(F)cc3o1)C2 [Compound 115] | – | 4360 | –
36 | CC(C)(C)CC(=O)N1C2CC1CN(Cc1nc3c(Cl)cc(F)cc3[nH]1)C2 [Compound 116] | – | 2460 | –
37 | Fc1cc(Cl)c2nc(CN3CC4CC(C3)N4CC3CCOCC3)[nH]c2c1 [Compound 117] | 40.989 | 1360 | –
38 | C[C@H](c1nc2c(Cl)cc(F)cc2[nH]1)N1CC2CCC(C1)N2CC(=O)NC(C)(C)C [Compound 118] | 102.64 | – | –
39 | C[C@@H](c1nc2c(Cl)cc(F)cc2[nH]1)N1CC2CCC(C1)N2CC(=O)NC(C)(C)C [Compound 119] | 95.894 | – | –
40 | O=C1CCCCN1CCN1C2CC1CN(Cc1nc3c(Cl)cc(F)cc3[nH]1)C2 [Compound 120] | 81.802 | – | –
41 | CC1(C(=O)NCCN2C3CC2CN(Cc2nc4c(Cl)cc(F)cc4[nH]2)C3)CC1 [Compound 121] | 96.032 | 254 | –
42 | CC(C)(C)NC(=O)CN1C2CC1CN(Cc1nc3c(C(F)(F)F)cccc3[nH]1)C2 [Compound 122] | 80.218 | 224 | –
43 | CC(C)(C)NC(=O)CN1CCC(CNc2nccc3c(F)cc(Cl)cc23)CC1 [Compound 123] | 96.398 | 243 | –
44 | CC(C)(C)NC(=O)CN1CCC(CNc2nccc3c(Cl)cc(F)cc23)CC1 [Compound 124] | 67.808 | 645 | –
45 | CC(C)(NC(=O)CN1CC2CC1CN2Cc1nc2c(Cl)cc(F)cc2[nH]1)C(F)(F)F (stereo not shown) [Compound 125] | 95.552 | 156 | –
46 | CC(C)(C)NC(=O)CN1CC2CC1CN2Cc1nc2c(Cl)cc(F)cc2[nH]1 (stereo not shown) [Compound 126] | 94.215 | – | –
47 | CC(C)(NC(=O)CN1CC2CC(C1)N2Cc1nc2c(Cl)ccc(F)c2[nH]1)C(F)(F)F [Compound 127] | 52.415 | 992 | –
48 | CN(C(=O)CN1C2CC1CN(Cc1nc3c(Cl)cc(F)cc3[nH]1)C2)C(C)(C)CO [Compound 128] | 18.511 | – | –
49 | CC(C)(NC(=O)CN1C2CC1CN(CC(=O)Nc1cc(F)cc(Cl)c1)C2)C(F)(F)F [Compound 129] | 89.48 | 222 | –
50 | CC(C)(C)NC(=O)CN1CC2CC1CN2CC(=O)Nc1cc(F)cc(Cl)c1 (stereo not shown) [Compound 130] | 92.618 | 121 | –
